Source: a melting point compilation (Tetko et al.; mined from patent text by program, amines drawn as free bases though some values may be those of a salt)

First: O=CN(O)CCCC(O)CS(=O)(=O)c1ccccc1Oc1ccc(OC(F)(F)F)cc1 (stereo not given)
Second: O=CN(O)C(CS(=O)(=O)c1ccc(-c2ccc(C(F)(F)F)cc2)cc1)c1ccc(O)cc1 (stereo not given)
The melting point of the first is lower: 92 to 93.9 °C for the first, 225 °C for the second.

Going from Nc1nc(N)nc(-c2ccc(-c3ccccc3)s2)n1 to Nc1nc(/C(=N/OCC(=O)OC(c2ccccc2)c2ccccc2)C(=O)Sc2nc3ccccc3s2)cs1, the melting point falls from > 250 °C to 152 °C.

Compared with CCCC1(O)CCC2C3CCC4=CC(=O)CCC4C3CCC21CC (stereo not given), COC1=C(OC)C(=O)C2=C(CCC(CC(=O)O)CC2)C1=O is lower in melting point: 132 to 134 °C for the first, 130 to 132 °C for the second.

Compared with COC(=O)c1c(Cl)cc(Cl)cc1NC(=O)CSc1ccccc1Cl, CC(C)c1ccc(-n2c(CC(=O)O)c(C(=O)O)c3cc(Oc4cccc(Cl)c4)ccc32)cc1 is higher in melting point: 98 to 99 °C for the first, 176 to 182 °C for the second.

Compared with N#Cc1ccc(OCC(F)(F)F)c(F)c1, FC(F)(F)c1ccc2nnc(-c3cccc(Cl)c3Cl)n2c1 is higher in melting point: 62 to 67 °C for the first, 100 to 101 °C for the second.

First: Fc1cc(C(F)(F)F)ccc1/C=C/c1nc(COc2ccc(-c3nc(Cn4ccnc4)cs3)cc2)co1
Second: CCc1nc2cc(C(F)(F)F)c(Cl)cc2n1-c1ccc(CCOC(=O)NS(=O)(=O)c2cccc3c(N(C)C)cccc23)cc1
The melting point of the first is lower: 133 to 135 °C for the first, 203 °C for the second.

Compared with CC(CCNC(=O)c1ccc(Oc2ccc(F)cc2)o1)N(O)C(N)=O (stereo not given), COc1ccc(COC(=O)NCCc2c[nH]c3ccc(F)cc23)cc1 is lower in melting point: 161 to 163 °C for the first, 118 to 119 °C for the second.

First: CC(=O)NCCC1CCc2ccn3nccc3c21 (stereo not given)
Second: Clc1ccc(C2(Cn3cncn3)CC(Cl)CO2)c(Cl)c1 (stereo not given)
The melting point of the first is higher: 100 to 101 °C for the first, 97 °C for the second.

Compared with O=C(Nc1ccc(-c2cnc(-c3ccc(NC(=O)C45CC6CC(CC(C6)C4)C5)cc3)[nH]2)cc1)c1cccnc1, O=C(Nc1cccc(Oc2ccccc2)c1)c1ccn2c1CSC2c1cccnc1 (stereo not given) is lower in melting point: 251 to 252 °C for the first, 144 °C for the second.

First: O=C1NCCNCCNCCNC(=O)c2cccc1n2
Second: CC(C)(O)c1ccc(-c2cnc3[nH]c(=O)n(CC4CCOCC4)c3n2)cn1
The melting point of the first is higher: 224 to 227 °C for the first, 207 to 209 °C for the second.

Compared with C[C@@H](C(=O)O)N(C(=O)[C@@H]1CS[C@H](c2ccccc2O)N1C(=O)CCSC(=O)c1ccccc1)c1ccccc1, CC(C)[C@H](NC(=O)OCc1ccccn1)C(=O)N[C@@H](Cc1ccccc1)[C@@H](O)[C@H](O)[C@H](Cc1ccccc1)NC(=O)[C@@H](NC(=O)OCc1ccccn1)C(C)C is higher in melting point: 95 to 100 °C for the first, 220 to 223 °C for the second.

First: Cc1ccc(NC(=O)c2ccc(CN3CCN(C)CC3)c(C(F)(F)F)c2)cc1NC(=O)N(C)c1cc(N)ncn1
Second: CS(=O)(=O)c1ccc(C(=O)Nc2ccc(-n3nc(C(F)(F)F)cc3C(F)(F)F)cc2)cc1
The melting point of the first is lower: 192 to 193 °C for the first, 216 to 218 °C for the second.

First: CCCCOC(=O)C(=O)Nc1cc(C#N)cc(NC(=O)C(=O)OCCCC)c1Cl
Second: CCCCNS(=O)(=O)CC(O)(CCCC)C1OC(C)(C)N(C(=O)OC(C)(C)C)C1CC1CCCCC1 (stereo not given)
The melting point of the first is lower: 118 to 120 °C for the first, 138 to 140 °C for the second.

Compared with COc1cc(COc2cc(CO)n(-c3ccccc3)n2)ccc1OCc1nc(-c2ccco2)oc1C, O=c1[nH]nc2c3c(cccc13)Oc1ccc(COCCP(=O)(OCc3ccccc3)OCc3ccccc3)cc1-2 is higher in melting point: 106 to 107 °C for the first, 173 to 175 °C for the second.

First: COc1ccnc(C(C)Sc2nc3cc(OC(F)F)c(C)cc3[nH]2)c1 (stereo not given)
Second: COc1ccc(S(=O)(=O)Nc2cccnc2Nc2ccc(OS(=O)(=O)c3ccc(OC)cc3)cc2)cc1
The melting point of the first is higher: 183 to 184 °C for the first, 122 to 123 °C for the second.

First: Cc1ccc(S(=O)(=O)c2c(N3CCN(C(=O)c4cccs4)CC3)c3ccccc3n(C)c2=O)cc1
Second: Cc1cc(S(=O)(=O)N(C)CC(O)(CO)c2cccc(Cl)n2)ccc1Cl (stereo not given)
The melting point of the first is higher: 213 °C for the first, 131 to 132 °C for the second.

First: CCN1CCCC1CNC(=O)c1cc(S(=O)(=O)N(C)C)cc2c1OCCO2 (stereo not given)
Second: O=C1c2ccc(Cl)cc2C(O)N1CCO[N+](=O)[O-] (stereo not given)
The melting point of the first is higher: 146 to 148 °C for the first, 116 to 118 °C for the second.

For Oc1ccc(C=C2c3cc(O)c(O)cc3-c3ccc(O)c(O)c32)cc1, the melting point was 228 to 230 °C.
